Paper PMC12692861, “Biotin-Linked Ursolic Acid Conjugates as Selective Anticancer Agents and Target-Identification Tools for Cancer Therapy” (Molecules, 2025)

Assays:
Assay in all cases: Streptavidin pulldown proteomics (LC-MS/MS), 5637 cells
Format in all cases: binding
Details in all cases: 5637, 50 µM
Histone H2A.Z = Histone H2A.Z (Homo sapiens, UniProt P0C0S5)
Experimental: (§1) We used proteomics to identify potential molecular targets of 5c. A pulldown assay with streptavidin-agarose-coated magnetic beads was performed. Briefly, 5637 and MB49 cells were incubated with 50 µM 5c for 10 min and 1 h. After incubation, the cells were rinsed three times with cold phosphate-buffered saline (PBS), and cell lysates were prepared and clarified by centrifugation to remove cellular debris, including nuclei. The clarified lysates were incubated with streptavidin-coated magnetic beads to selectively bind biotinylated contents. Bound proteins were separated from unbound proteins through thorough bead washing. Proteins attached to the beads were eluted and analyzed on an Orbitrap Fusion Tribrid mass spectrometer (Thermo Scientific, New York, NY, USA) coupled with an Ultimate 3000 nano-UPLC system. Samples were trapped on a PepMap100 C18 trap column (5 µm, 0.3 × 5 mm) and separated on a PepMap RSLC C18 column (2 µm, 75 µm × 150 mm) using a gradient from 2 to 40% acetonitrile with 0.1% formic acid over 120 min at […] and 40 °C. MS data were acquired in positive mode using data-dependent acquisition (DDA), with precursor scans at 120,000 FWHM (400–2000 m/z), and MS/MS scans in top-speed mode (3 s cycle) using HCD fragmentation (NCE 32%). Proteins were identified and quantified based on peptide spectral matches (PSMs), and fold enrichment compared to controls was calculated to evaluate interaction strength.
(§2) The 5637 and MB49 cells were cultured and treated with higher concentrations of 5c (50 µM) for short period of times (10 min & 60 min) followed by whole cell lysis (WCL) preparation of both treated and untreated cells using modified RIPA buffer [NaCl (100mM), TrisCl (20mM, pH 7.4), EDTA (10 mM), TritonX-100 (0.5%), Glycerol (5%), Protease inhibitor cocktail (1x)] with gentle continuous rotation. The protein content of each WCL was estimated using Pierce™ BCA Protein Assay kit (Thermo-Scientific # 23225). The 100 µL of resuspended Dynabeads™ MyOne™ Streptavidin C1 (Invitrogen # 65001) were washed with PBST (PBS with 0.01% Tween™20) in a magnet stand as recommended in the manufacturer’s instructions. The washed beads were incubated with 200 µg of each WCL in separate tubes at room temperature for 2 h in a gentle end-over-end mixing. After incubation, beads were washed 3–5 times with PBST (0.01% Tween-20) on a magnetic stand and beads were decanted by after spinning and magnetization. The samples were stored at −80 °C till further analysis using LC-MS/MS by the Proteomics and Mass Spectrometry Core Laboratory of Augusta University.

[1] = target: ATP synthase subunit beta (Homo sapiens, UniProt P06576)
Experimental: as §1, §2

[2] = target: Elongation factor 1-beta (EF1β) (Homo sapiens, UniProt P24534)
Experimental: as §1, §2

[3] = target: Elongation factor 1-delta (EF1δ) (Homo sapiens, UniProt P29692)
Experimental: as §1, §2

[4] = target: Receptor of activated protein C kinase 1 (RACK1) (Homo sapiens, UniProt P63244)
Experimental: as §1, §2

[5] = target: Rab-like protein 6 (RABL6) (Homo sapiens, UniProt Q3YEC7)
Experimental: as §1, §2

[6] = target: T-complex protein 1 subunit theta (Homo sapiens, UniProt P50990)
Experimental: as §1, §2

[7] = target: Elongation factor 1-gamma (EF1γ) (Homo sapiens, UniProt P26641)
Experimental: as §1, §2

[8] = target: Eukaryotic translation initiation factor 5B (eIF5B) (Homo sapiens, UniProt O60841)
Experimental: as §1, §2

HSP 90-alpha (HSP90α) = HSP 90-alpha (HSP90α) (Homo sapiens, UniProt P07900)
Experimental: as §1, §2

[9] = target: Elongation factor 2 (eEF2) (Homo sapiens, UniProt P13639)
Experimental: as §1, §2

[10] = target: Splicing factor U2AF 65 kDa subunit (U2AF65) (Homo sapiens, UniProt P26368)
Experimental: as §1, §2

[11] = target: ATP synthase subunit alpha (Homo sapiens, UniProt P25705)
Experimental: as §1, §2

[12] = target: Histone H2A type 2-C (HIST2H2AC) (Homo sapiens, UniProt Q16777)
Experimental: as §1, §2

Filamin-A (FLNA) = Filamin-A (FLNA) (Homo sapiens, UniProt P21333)
Experimental: as §1, §2

[13] = target: D-3-phosphoglycerate dehydrogenase (Homo sapiens, UniProt O43175)
Experimental: as §1, §2

[14] = target: Ras GTPase-activating-like protein IQGAP1 (Homo sapiens, UniProt P46940)
Experimental: as §1, §2

Histone H2B type 1-M = Histone H2B type 1-M (Homo sapiens, UniProt Q99879)
Experimental: as §1, §2

HSP 90-beta (HSP90β) = HSP 90-beta (HSP90β) (Homo sapiens, UniProt P08238)
Experimental: as §1, §2

Chain of Rab-like protein 6 (RABL6) (Q3YEC7 whole entry): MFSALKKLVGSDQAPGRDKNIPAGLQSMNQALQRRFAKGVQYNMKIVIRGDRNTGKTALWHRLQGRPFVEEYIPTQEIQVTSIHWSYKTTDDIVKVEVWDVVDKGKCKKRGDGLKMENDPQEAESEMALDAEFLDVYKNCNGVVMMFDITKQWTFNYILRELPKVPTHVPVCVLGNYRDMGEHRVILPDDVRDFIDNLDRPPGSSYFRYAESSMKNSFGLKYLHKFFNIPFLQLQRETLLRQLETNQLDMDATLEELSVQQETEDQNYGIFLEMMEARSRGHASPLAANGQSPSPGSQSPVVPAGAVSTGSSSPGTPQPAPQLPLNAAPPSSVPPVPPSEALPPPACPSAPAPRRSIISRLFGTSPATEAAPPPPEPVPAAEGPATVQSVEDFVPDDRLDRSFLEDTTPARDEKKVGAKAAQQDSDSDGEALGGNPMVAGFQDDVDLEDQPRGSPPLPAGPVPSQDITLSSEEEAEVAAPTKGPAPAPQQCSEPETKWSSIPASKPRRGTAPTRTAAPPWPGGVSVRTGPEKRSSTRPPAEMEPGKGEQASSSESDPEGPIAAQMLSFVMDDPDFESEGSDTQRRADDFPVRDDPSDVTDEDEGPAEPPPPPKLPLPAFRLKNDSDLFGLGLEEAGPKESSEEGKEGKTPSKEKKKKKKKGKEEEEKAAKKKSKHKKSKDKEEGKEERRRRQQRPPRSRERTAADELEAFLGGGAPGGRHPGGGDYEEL
Chain of Elongation factor 1-delta (EF1δ) (P29692 whole entry): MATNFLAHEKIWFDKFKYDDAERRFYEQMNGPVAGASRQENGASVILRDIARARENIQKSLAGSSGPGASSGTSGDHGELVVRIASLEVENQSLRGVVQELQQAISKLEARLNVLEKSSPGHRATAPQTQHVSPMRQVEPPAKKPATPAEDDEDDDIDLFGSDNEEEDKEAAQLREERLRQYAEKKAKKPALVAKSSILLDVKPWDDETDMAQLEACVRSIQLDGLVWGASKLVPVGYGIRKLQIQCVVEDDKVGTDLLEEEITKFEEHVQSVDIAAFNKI
Chain of Elongation factor 1-beta (EF1β) (P24534 whole entry): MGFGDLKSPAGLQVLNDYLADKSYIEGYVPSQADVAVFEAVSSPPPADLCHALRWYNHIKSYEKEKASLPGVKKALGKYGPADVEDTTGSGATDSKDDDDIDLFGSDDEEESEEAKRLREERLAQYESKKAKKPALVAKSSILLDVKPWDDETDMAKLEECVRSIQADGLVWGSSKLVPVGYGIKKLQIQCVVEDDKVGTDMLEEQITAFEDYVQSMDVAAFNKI
Chain of Eukaryotic translation initiation factor 5B (eIF5B) (O60841 whole entry): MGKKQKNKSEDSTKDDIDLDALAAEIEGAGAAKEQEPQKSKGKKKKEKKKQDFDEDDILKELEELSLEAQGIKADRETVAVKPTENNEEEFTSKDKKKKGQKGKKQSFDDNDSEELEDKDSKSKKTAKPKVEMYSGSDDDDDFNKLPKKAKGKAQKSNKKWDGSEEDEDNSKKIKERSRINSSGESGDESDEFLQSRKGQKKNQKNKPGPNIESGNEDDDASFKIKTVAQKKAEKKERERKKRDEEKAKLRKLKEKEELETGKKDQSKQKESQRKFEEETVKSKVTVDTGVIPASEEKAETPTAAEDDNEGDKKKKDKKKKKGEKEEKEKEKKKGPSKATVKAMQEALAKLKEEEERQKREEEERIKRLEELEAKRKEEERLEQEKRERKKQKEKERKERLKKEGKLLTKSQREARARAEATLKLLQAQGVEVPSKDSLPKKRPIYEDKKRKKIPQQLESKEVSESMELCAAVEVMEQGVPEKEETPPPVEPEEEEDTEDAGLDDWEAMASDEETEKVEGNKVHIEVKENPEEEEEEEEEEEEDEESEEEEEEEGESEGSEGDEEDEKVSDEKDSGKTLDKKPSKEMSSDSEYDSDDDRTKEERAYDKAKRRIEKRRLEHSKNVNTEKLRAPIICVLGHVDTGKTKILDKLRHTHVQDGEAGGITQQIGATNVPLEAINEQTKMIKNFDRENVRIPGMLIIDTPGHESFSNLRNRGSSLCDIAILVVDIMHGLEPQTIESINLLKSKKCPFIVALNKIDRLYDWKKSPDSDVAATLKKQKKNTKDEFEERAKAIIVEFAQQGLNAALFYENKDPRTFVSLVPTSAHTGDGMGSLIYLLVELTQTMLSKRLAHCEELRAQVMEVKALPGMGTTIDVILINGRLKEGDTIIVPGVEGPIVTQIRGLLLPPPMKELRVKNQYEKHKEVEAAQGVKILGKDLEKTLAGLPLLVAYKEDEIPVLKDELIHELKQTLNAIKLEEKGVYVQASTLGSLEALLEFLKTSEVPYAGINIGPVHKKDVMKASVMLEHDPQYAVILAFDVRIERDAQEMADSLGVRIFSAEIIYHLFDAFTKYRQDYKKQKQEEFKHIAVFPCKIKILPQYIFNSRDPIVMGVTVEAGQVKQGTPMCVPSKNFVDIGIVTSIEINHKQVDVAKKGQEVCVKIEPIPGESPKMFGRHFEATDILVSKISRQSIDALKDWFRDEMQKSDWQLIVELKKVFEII
Chain of HSP 90-beta (HSP90β) (P08238 whole entry): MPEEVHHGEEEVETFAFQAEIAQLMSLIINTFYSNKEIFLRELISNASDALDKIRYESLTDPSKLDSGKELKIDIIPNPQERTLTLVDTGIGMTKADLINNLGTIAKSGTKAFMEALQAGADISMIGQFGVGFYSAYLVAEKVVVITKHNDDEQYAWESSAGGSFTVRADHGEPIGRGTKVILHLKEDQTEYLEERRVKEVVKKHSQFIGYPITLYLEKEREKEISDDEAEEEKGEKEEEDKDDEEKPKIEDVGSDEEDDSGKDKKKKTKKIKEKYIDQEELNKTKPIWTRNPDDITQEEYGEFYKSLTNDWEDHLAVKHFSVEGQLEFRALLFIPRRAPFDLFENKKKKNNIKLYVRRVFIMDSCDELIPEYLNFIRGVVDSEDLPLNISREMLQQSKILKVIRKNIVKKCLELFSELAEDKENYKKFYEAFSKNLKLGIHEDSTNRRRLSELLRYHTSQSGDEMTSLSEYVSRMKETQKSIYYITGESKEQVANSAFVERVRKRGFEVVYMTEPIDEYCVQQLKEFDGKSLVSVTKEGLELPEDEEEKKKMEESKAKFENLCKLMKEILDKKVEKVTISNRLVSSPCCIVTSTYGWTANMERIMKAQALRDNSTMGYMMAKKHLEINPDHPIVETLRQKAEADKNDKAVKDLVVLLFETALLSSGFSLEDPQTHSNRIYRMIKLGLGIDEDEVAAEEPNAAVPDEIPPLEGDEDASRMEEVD
Chain of Histone H2A.Z (P0C0S5 whole entry, the tested form may be a part): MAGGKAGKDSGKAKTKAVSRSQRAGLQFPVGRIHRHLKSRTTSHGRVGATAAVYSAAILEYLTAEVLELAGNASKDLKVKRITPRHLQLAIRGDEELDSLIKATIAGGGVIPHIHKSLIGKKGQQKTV
Chain of Splicing factor U2AF 65 kDa subunit (U2AF65) (P26368 whole entry, one chain of several): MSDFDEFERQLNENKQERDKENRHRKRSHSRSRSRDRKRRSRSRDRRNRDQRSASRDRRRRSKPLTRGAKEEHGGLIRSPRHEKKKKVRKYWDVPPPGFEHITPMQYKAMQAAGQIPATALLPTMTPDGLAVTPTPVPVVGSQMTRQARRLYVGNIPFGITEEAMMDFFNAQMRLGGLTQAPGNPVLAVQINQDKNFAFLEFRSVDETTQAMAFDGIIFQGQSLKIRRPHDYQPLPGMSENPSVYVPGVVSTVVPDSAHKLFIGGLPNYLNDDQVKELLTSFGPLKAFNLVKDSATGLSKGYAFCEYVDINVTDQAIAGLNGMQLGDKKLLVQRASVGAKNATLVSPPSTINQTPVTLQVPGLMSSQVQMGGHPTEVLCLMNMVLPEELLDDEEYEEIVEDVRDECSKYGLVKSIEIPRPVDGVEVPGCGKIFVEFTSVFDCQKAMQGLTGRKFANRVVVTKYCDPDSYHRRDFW
Chain of D-3-phosphoglycerate dehydrogenase (O43175 whole entry): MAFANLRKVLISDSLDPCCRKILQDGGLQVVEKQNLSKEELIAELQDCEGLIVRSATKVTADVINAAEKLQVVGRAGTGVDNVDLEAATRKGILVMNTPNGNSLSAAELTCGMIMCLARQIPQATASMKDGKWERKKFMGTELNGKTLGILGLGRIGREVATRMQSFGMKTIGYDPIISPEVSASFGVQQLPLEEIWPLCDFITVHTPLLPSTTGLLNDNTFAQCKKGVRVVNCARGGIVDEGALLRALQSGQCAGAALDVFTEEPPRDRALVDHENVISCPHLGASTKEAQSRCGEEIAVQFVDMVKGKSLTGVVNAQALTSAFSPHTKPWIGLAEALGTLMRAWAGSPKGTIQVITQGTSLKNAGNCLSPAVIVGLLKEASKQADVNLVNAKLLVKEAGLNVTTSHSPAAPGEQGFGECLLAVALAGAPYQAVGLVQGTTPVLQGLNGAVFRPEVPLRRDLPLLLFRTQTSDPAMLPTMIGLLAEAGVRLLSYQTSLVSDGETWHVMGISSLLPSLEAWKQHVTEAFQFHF
Chain of T-complex protein 1 subunit theta (P50990 whole entry, one chain of several): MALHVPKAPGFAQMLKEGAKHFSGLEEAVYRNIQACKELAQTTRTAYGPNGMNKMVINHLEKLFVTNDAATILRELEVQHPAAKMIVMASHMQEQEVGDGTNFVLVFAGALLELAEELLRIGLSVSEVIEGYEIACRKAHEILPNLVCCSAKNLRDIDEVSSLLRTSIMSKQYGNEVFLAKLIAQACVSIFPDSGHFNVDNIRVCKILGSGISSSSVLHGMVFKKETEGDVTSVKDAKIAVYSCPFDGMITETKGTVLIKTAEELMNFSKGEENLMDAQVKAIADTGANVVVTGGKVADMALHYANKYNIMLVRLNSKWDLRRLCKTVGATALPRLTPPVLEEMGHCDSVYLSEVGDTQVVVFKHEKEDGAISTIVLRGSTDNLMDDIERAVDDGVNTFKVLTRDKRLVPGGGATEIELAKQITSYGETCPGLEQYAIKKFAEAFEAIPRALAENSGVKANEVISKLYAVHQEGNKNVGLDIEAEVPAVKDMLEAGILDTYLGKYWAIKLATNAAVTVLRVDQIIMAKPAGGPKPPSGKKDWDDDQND

- Fold Change 10 min/Ctrl (Histone H2A.Z): 5.85
- Fold Change 1 h/Ctrl (Histone H2A.Z): 4.78
- Fold Change 10 min/Ctrl [1]: 3.29
- Fold Change 1 h/Ctrl [1]: 5
- Fold Change 10 min/Ctrl [2]: 2.35
- Fold Change 1 h/Ctrl [2]: 2.35
- Fold Change 10 min/Ctrl [3]: 8
- Fold Change 1 h/Ctrl [3]: 7
- Fold Change 10 min/Ctrl [4]: 6
- Fold Change 1 h/Ctrl [4]: 6
- Fold Change 10 min/Ctrl [5]: 1.33
- Fold Change 1 h/Ctrl [5]: 2.67
- Fold Change 10 min/Ctrl [6]: 14
- Fold Change 1 h/Ctrl [6]: 12
- Fold Change 1 h/Ctrl [7]: 6
- Fold Change 10 min/Ctrl [8]: 32
- Fold Change 1 h/Ctrl [8]: 34
- Fold Change 10 min/Ctrl (HSP 90-alpha (HSP90α)): 119
- Fold Change 1 h/Ctrl (HSP 90-alpha (HSP90α)): 111
- Fold Change 10 min/Ctrl [9]: 44
- Fold Change 1 h/Ctrl [9]: 50
- Fold Change 10 min/Ctrl [10]: 14
- Fold Change 1 h/Ctrl [10]: 10
- Fold Change 10 min/Ctrl [11]: 1.63
- Fold Change 1 h/Ctrl [11]: 2
- Fold Change 10 min/Ctrl [12]: 3.48
- Fold Change 1 h/Ctrl [12]: 3.04
- Fold Change 10 min/Ctrl (Filamin-A (FLNA)): 16
- Fold Change 1 h/Ctrl (Filamin-A (FLNA)): 18
- Fold Change 10 min/Ctrl [13]: 15
- Fold Change 1 h/Ctrl [13]: 10
- Fold Change 10 min/Ctrl [14]: 3.5
- Fold Change 1 h/Ctrl [14]: 2.25
- Fold Change 10 min/Ctrl (Histone H2B type 1-M): 3.16
- Fold Change 1 h/Ctrl (Histone H2B type 1-M): 1.37
- Fold Change 10 min/Ctrl (HSP 90-beta (HSP90β)): 93
- Fold Change 1 h/Ctrl (HSP 90-beta (HSP90β)): 97
Compound: CC1CCC2(C(=O)OCCCCOC(=O)CCCCC3SCC4NC(=O)NC43)CCC3(C)C(=CCC4C5(C)CCC(O)C(C)(C)C5CCC43C)C2C1C [Compound 5c, 4-((5-((3aS,4S,6aR)-2-Oxohexahydro-1H-thieno [3,4-d]imidazol-4-yl)pentanoyl)oxy) butyl 3-hydroxy-urs-12-en-28-oate]
